The structures appear in SMILES notation.

This passage reports IC50 results from patent US8729061B2, “Pyrrolidine derivatives” (Hoffmann-La Roche Inc., priority 2011, dated 2014).

Holding throughout (format): biochemical
One test addresses human Cathepsin S (Homo sapiens (Human), UniProt P25774). Kind of test: Cathepsin enzyme inhibition assay (fluorogenic peptide substrate), Cat S. To be noted: enzyme 1 nM, substrate Z-Val-Val-Arg-AMC 20 μM, pH 6.5. The procedure:
(§1) Enzyme activity is measured by observing the increase in fluorescence intensity caused by cleavage of a peptide substrate containing a fluorophore whose emission is quenched in the intact peptide.
(§2) Assay buffer: 100 mM potassium phosphate pH 6.5, EDTA-Na 5 mM, Triton X-100 0.001%, DTT 5 mM.
(§3) Enzymes (all at 1 nM): human and mouse Cathepsin S, Cat K, Cat B, Cat L. Substrate (20 μM): Z-Val-Val-Arg-AMC, except for Cat K which uses Z-Leu-Arg-AMC (both from Bachem).
(§4) Excitation 360 nm, Emission 465 nm.
(§5) Enzyme is added to the substance dilutions in 96-well microtitre plates and the reaction is started with substrate. […] IC50 are calculated by standard methods. Inhibition of human Cat S, mouse Cat S, human Cat K, mouse Cat K, human Cat B, mouse Cat B, human Cat L and mouse Cat L have been measured separately.

The target of another test is human Cat K (Homo sapiens (Human), UniProt P43235). The test can be described thus: Cathepsin enzyme inhibition assay (fluorogenic peptide substrate), Cat K. To be noted: enzyme 1 nM, substrate Z-Leu-Arg-AMC 20 μM, pH 6.5. The procedure: as §1, §2, §3, §4, §5
A further test deals with human Cat B (Homo sapiens (Human), UniProt P07858). The test can be described thus: Cathepsin enzyme inhibition assay (fluorogenic peptide substrate), Cat B. To be noted: enzyme 1 nM, substrate Z-Val-Val-Arg-AMC 20 μM, pH 6.5. Here is the method:
as §1, §2, §3, §4, §5

In a further test the target is human Cat L (Homo sapiens (Human), UniProt P07711). The test can be described thus: Cathepsin enzyme inhibition assay (fluorogenic peptide substrate), Cat L. The note with it: enzyme 1 nM, substrate Z-Val-Val-Arg-AMC 20 μM, pH 6.5. Here is the method:
as §1, §2, §3, §4, §5

Sequence of human Cathepsin S (P25774 115-331): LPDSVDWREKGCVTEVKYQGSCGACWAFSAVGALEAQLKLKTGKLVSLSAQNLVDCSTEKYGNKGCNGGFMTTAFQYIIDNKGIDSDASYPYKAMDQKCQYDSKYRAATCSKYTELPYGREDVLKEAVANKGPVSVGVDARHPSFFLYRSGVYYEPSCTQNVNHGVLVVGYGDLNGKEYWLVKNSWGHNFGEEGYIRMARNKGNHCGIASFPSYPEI
Sequence of human Cat K (P43235 115-329): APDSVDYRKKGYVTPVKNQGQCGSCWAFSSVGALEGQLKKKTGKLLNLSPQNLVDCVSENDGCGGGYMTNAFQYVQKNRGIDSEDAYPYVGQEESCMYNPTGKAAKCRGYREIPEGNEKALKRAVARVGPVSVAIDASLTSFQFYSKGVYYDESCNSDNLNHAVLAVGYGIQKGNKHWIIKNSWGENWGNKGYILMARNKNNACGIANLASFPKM
Sequence of human Cat L (P07711 114-333): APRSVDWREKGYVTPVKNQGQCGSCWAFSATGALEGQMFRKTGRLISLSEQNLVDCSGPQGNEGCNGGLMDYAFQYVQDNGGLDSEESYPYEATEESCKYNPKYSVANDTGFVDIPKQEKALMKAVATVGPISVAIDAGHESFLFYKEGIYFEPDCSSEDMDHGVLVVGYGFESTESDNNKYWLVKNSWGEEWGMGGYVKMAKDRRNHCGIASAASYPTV

Take `O=C(NC1CC1)C(=O)[C@H](CC1CCCCC1)NC(=O)[C@@H]1C[C@@H](S(=O)(=O)c2ccccc2Cl)CN1C(=O)C1(c2ccc(Cl)cc2)CC1` [Example 30, (2S,4R)-1-(1-(4-chlorophenyl)cyclopropanecarbonyl)-4-(2-chlorophenylsulfonyl)-N—((S)-1-cyclohexyl-4-(cyclopropylamino)-3,4-dioxobutan-2-yl)pyrrolidine-2-carboxamide]: the half-inhibitory concentration (IC50) against human Cathepsin S was 1.42 nM; against human Cat K, 137 nM; against human Cat B it was 210 nM; against human Cat L, 23.4 nM.
For the molecule `CCCCNC(=O)C(=O)[C@H](CCC)NC(=O)[C@@H]1C[C@@H](S(=O)(=O)c2ccccc2Cl)CN1C(=O)C1(c2ccc(Cl)cc2)CC1` [Example 32, (2S,4R)—N—((S)-1-(butylamino)-1,2-dioxohexan-3-yl)-1-(1-(4-chlorophenyl)cyclopropanecarbonyl)-4-(2-chlorophenylsulfonyl)pyrrolidine-2-carboxamide], the 50% inhibitory concentration (IC50) against human Cathepsin S was 0.734 nM; on human Cat K, 24 nM; on human Cat B, 29.4 nM; at human Cat L, 7.7 nM.
As to `CC[C@H](NC(=O)[C@@H]1C[C@@H](S(=O)(=O)c2ccccc2Cl)CN1C(=O)C1(c2ccc(Cl)cc2)CC1)C(=O)C(=O)NCc1ccccc1` [Example 33, (2S,4R)—N—((S)-1-(benzylamino)-1,2-dioxopentan-3-yl)-1-(1-(4-chlorophenyl)cyclopropanecarbonyl)-4-(2-chlorophenylsulfonyl)pyrrolidine-2-carboxamide], the IC50 at human Cathepsin S came to 1.11 nM; at human Cat K it was 52.9 nM; at human Cat B it was 77 nM; on human Cat L, 13.6 nM.
Take `C[C@H](NC(=O)[C@@H]1C[C@@H](S(=O)(=O)c2ccccc2Cl)CN1C(=O)C1(c2ccc(Cl)cc2)CC1)C(=O)C(=O)NC1CC1` [Example 34, (2S,4R)-1-(1-(4-chlorophenyl)cyclopropanecarbonyl)-4-(2-chlorophenylsulfonyl)-N—((S)-4-(cyclopropylamino)-3,4-dioxobutan-2-yl)pyrrolidine-2-carboxamide]: the IC50 against human Cathepsin S came out at 0.787 nM; against human Cat K, 444 nM; against human Cat B, 399 nM; on human Cat L it was 28 nM.
In the same order, the values of `CCC[C@H](NC(=O)[C@@H]1C[C@@H](S(=O)(=O)c2ccccc2Cl)CN1C(=O)C1(c2ccc(Cl)cc2)CC1)C(=O)C(=O)NCc1ccccc1` [Example 35, (2S,4R)—N—((S)-1-(benzylamino)-1,2-dioxohexan-3-yl)-1-(1-(4-chlorophenyl)cyclopropanecarbonyl)-4-(2-chlorophenylsulfonyl)pyrrolidine-2-carboxamide] are 1.21 nM, 21.5 nM, 31 nM and 9.8 nM.
The matching figures for `CCCC(C)NC(=O)C(=O)[C@H](CC)NC(=O)[C@@H]1C[C@@H](S(=O)(=O)c2ccccc2Cl)CN1C(=O)C1(c2ccc(Cl)cc2)CC1` (stereo partly drawn) [Example 36, (2S,4R)-1-(1-(4-chlorophenyl)cyclopropanecarbonyl)-4-(2-chlorophenylsulfonyl)-N-((3S)-1,2-dioxo-1-(pentan-2-ylamino)pentan-3-yl)pyrrolidine-2-carboxamide]: 0.776 nM, 155 nM, 350 nM and 16.5 nM.
For `CCCC(C)NC(=O)C(=O)[C@H](CCC)NC(=O)[C@@H]1C[C@@H](S(=O)(=O)c2ccccc2Cl)CN1C(=O)C1(c2ccc(Cl)cc2)CC1` (stereo partly drawn) [Example 37, (2S,4R)-1-(1-(4-chlorophenyl)cyclopropanecarbonyl)-4-(2-chlorophenylsulfonyl)-N-((3S)-1,2-dioxo-1-(pentan-2-ylamino)hexan-3-yl)pyrrolidine-2-carboxamide], the IC50 on human Cathepsin S turned out to be 1.02 nM; against human Cat K, 107 nM; against human Cat B it was 246 nM; on human Cat L it was 15.1 nM.
For the molecule `CC[C@H](NC(=O)[C@@H]1C[C@@H](S(=O)(=O)c2ccc(Cl)cc2Cl)CN1C(=O)C1(c2ccc(Cl)cc2)CC1)C(=O)C(=O)NC1CC1` [Example 38, (2S,4R)-1-(1-(4-chlorophenyl)cyclopropanecarbonyl)-N—((S)-1-(cyclopropylamino)-1,2-dioxopentan-3-yl)-4-(2,4-dichlorophenylsulfonyl)pyrrolidine-2-carboxamide], the IC50 against human Cathepsin S stood at 0.34 nM; against human Cat K, 53.3 nM; against human Cat B it was 154 nM; on human Cat L, 10.6 nM.
In the same order, the values of `CC[C@H](NC(=O)[C@@H]1C[C@@H](S(=O)(=O)c2ccc(F)cc2Cl)CN1C(=O)C1(c2ccc(Cl)cc2)CC1)C(=O)C(=O)NC1CC1` [Example 39, (2S,4R)-4-(2-chloro-4-fluorophenylsulfonyl)-1-(1-(4-chlorophenyl)cyclopropanecarbonyl)-N—((S)-1-(cyclopropylamino)-1,2-dioxopentan-3-yl)pyrrolidine-2-carboxamide] are 0.558 nM, 63.6 nM, 140 nM and 11.4 nM.
In the same order, the values of `CCC[C@H](NC(=O)[C@@H]1C[C@@H](S(=O)(=O)c2ccccc2Cl)CN1C(=O)C1(c2ccc(Cl)cc2)CC1)C(=O)C(=O)NCC(F)(F)F` [Example 40, (2S,4R)-1-(1-(4-chlorophenyl)cyclopropanecarbonyl)-4-(2-chlorophenylsulfonyl)-N—((S)-1,2-dioxo-1-(2,2,2-trifluoroethylamino)hexan-3-yl)pyrrolidine-2-carboxamide] are 1.06 nM, 406 nM, 366 nM and 29.9 nM.
Consider `CCC[C@H](NC(=O)[C@@H]1C[C@@H](S(=O)(=O)c2ccccc2Cl)CN1C(=O)C1(c2ccc(Cl)cc2)CC1)C(=O)C(=O)NC(C)C` [Example 41, (2S,4R)-1-(1-(4-chlorophenyl)cyclopropanecarbonyl)-4-(2-chlorophenylsulfonyl)-N—((S)-1-(isopropylamino)-1,2-dioxohexan-3-yl)pyrrolidine-2-carboxamide], for which the IC50 at human Cathepsin S came out at 0.568 nM; against human Cat K, 152 nM; against human Cat B, 187 nM; against human Cat L, 11.7 nM.
The matching figures for `CCC[C@H](NC(=O)[C@@H]1C[C@@H](S(=O)(=O)c2ccccc2Cl)CN1C(=O)C1(c2ccc(Cl)cc2)CC1)C(=O)C(=O)NCC` [Example 44, (2S,4R)-1-(1-(4-chlorophenyl)cyclopropanecarbonyl)-4-(2-chlorophenylsulfonyl)-N—((S)-1-(ethylamino)-1,2-dioxohexan-3-yl)pyrrolidine-2-carboxamide]: 0.779 nM, 91.8 nM, 108 nM and 13.6 nM.
The matching figures for `CC[C@H](NC(=O)[C@@H]1C[C@@H](S(=O)(=O)c2ccc(O[C@@H](C)C(F)(F)F)cc2Cl)CN1C(=O)C1(c2ccc(Cl)cc2)CC1)C(=O)C(=O)NC1CC1` [Example 45, (2S,4R)-4-(2-chloro-4-((S)-1,1,1-trifluoropropan-2-yloxy)phenylsulfonyl)-1-(1-(4-chlorophenyl)cyclopropanecarbonyl)-N—((S)-1-(cyclopropylamino)-1,2-dioxopentan-3-yl)pyrrolidine-2-carboxamide]: 5.43 nM, 212 nM, 335 nM and 74.9 nM.

The IC50 is the concentration that inhibits the measured activity by half. Higher therefore signals weaker potency.
